Values quoted from earlier work as cited in US7485688B2, “Water and oil producing composition” (priority 2004, dated 2009).

system: rats or mice; settings: acute oral toxicity in rats or mice

For CC(=O)OC(C)(N=NC(C)(OC(C)=O)c1ccccc1)c1ccccc1 (centres unmarked) [1,1-azobis(1-acetoxy-1-phenylethane)], the LD50 is listed as at least 5000 mg/kg.

Point of comparison: CCC(C)(C#N)N=NC(C)(C#N)CC (centres unmarked) [2,2′-azobis-2-methylbutyronitrile], LD50 1316 mg/kg. Against it:
- N#CC1(N=NC2(C#N)CCCCC2)CCCCC1 [1,1′-azobis(2-cyclohexane-1-carbonitrile)] — 9-fold higher, 11800 mg/kg
- CC(C)CC(C)(C#N)N=NC(C)(C#N)CC(C)C (centres unmarked) [2,2′-azobis(2,4-dimethylvaleronitrile)] — 4.6-fold higher, 6000 mg/kg
- COC(=O)C(C)(C)N=NC(C)(C)C(=O)OC [dimethyl 2,2′-azobisisobutyrate] — 1.8-fold higher, 2369 mg/kg
